In US20140088144A1, “INHIBITING MICROBIAL INFECTIONS” (THE UNIVERSITY OF KANSAS, priority 2012, published 2014):

How the values were obtained:
[1] = biological target: VirF (Shigella flexneri, UniProt P0A2T1); assay: Shigella virB-lacZ reporter gene assay; format: cell-based, S. flexneri; design: endogenously expressed VirF in a Shigella strain carrying a virB-lacZ reporter construct; endogenous in cells; host or cells: S. flexneri strain BS536 (virB-lacZ)
Description: Colonies of S. flexneri strain BS536 that were red on TSA plates containing Congo red were grown overnight in Luria-Bertani broth at 30° C. to maintain low basal expression from the virB promoter. The overnight grown cultures were diluted 1:100 into 10 ml of the same medium with either 0.3% DMSO or different concentrations of SE-1 dissolved in DMSO (final concentration 0.3% DMSO). Cultures were grown at 37° C. in a shaking incubator to an OD600 of ˜0.4, centrifuged to pellet the cells and then resuspended in Z buffer for a two-fold concentration of the cells. Control cultures were grown at 30° C., a temperature at which virF expression is not induced (37), to illustrate the basal level of expression from the virB promoter region. β-Galactosidase assays were performed, with incubation with the substrate o-nitrophenyl-β-D-galactopyranoside (ONPG) was at room temperature. Activities are presented as a percentage of the uninhibited, DMSO-only control sample. Three independent assays were performed with two replicates in each assay.

[2] = system: LacI-repressed hts-lacZ fusion; assay: LacI-repressed hts-lacZ control reporter fusion (β-galactosidase); format: cell-based, E. coli; conditions: hts-lacZ control (SME3359)
Text: The control strain for the secondary high-throughput screen and subsequent experiments was SME3359, and carries the LacI-repressed fusion and LacI-expressing pHG165lacI. The fusion consists of lacZ under the control of an artificial promoter (Phts) with an induced expression level similar to that of the induced rhaBAD operon. Phts is regulated by Lad and induced with IPTG. The Phts core promoter elements include a near-consensus −35 sequence and a −10 sequence followed by a lacO1 operator sequence that overlaps the transcription start site with the same spacing as lacO1 at lacZYA. To construct the upstream half of Phts, oligo 2829 was annealed to oligo 2788 and the primers were extended using the Expand High Fidelity PCR System (Roche Applied Science, Indianapolis, Ind.). The downstream half of the Phts promoter was constructed by similarly annealing and extending oligos 2789 and 2790.
The top hit identified in the screen was 1-ethyl-4-(nitromethyl)-3-quinolin-2-yl-4H-quinoline, Compound 2. […] Lysis/ONPG buffer (50 μL, as in Primary Screen) was added to each well and the plate was immediately placed into a PowerWave XS plate reader (BioTek Instruments, Inc., Winooski, Vt.), set to read the OD420 of each well every 15 min for 4 hr. […] Due to differences in kinetics of lacZ reporter expression, the rhaB-lacZ strains were analyzed at 4 hours and the hts-lacZ strain was analyzed at 1 hr. Percent activity was calculated for each condition as described above, using the single time point with appropriate OD420 levels for each strain. […] IC50 and maximal inhibition values were calculated using the XLfit add-in for Microsoft Excel (ID Business Solutions, Guildford, UK), and graphs were drawn using Prism (GraphPad, La Jolla, Calif.).
In vivo dose-response assays were performed using a procedure described previously. […] Bacterial cultures were mixed with varying concentrations of SE-1 (2.2% DMSO, final), induced with 6.5 mM IPTG for 3 h at 37° C., lysed and β-galactosidase activity was measured. […] IC50 values were calculated and graphs were drawn using Prism (GraphPad, La Jolla, Calif.).

Chain of VirF (P0A2T1 whole entry): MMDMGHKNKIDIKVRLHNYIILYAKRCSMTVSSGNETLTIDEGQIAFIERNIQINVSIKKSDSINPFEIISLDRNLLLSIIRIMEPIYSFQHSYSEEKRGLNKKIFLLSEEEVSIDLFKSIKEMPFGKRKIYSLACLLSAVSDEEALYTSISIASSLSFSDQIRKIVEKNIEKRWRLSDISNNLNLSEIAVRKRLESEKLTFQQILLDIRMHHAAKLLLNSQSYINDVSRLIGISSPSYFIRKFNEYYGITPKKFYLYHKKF

For `CCCCN1C=C(c2ccc3ccccc3n2)C(C[N+](=O)[O-])c2ccccc21` (stereo not shown) [Compound 1, 1-butyl-4-(nitromethyl)-3-quinolin-2-yl-4H-quinoline], which IC50 [1] is on record?
The IC50 was ~30 µM.

What about the “maximum inhibition of virB-lacZ expression” value ([1]; 40 μM SE-1) of the same molecule?
Its value is “greater than two fold”.

What about the “inhibition of the LacI-repressed fusion” value [2] of the same molecule?
The value was “small amount of non-specific inhibition”.

And the “inhibition of the LacI-repressed fusion” value ([2]; listed as SE-1)?
The value was “some non-specific inhibition”.
